Earlier results as cited in patent US20090048261A1, “Pharmaceutical Composition for Treatment of Ocular Hypertension” (priority 2007, published 2009).
“And” between values parts separate entries of the source, which are not always exact repeats. Equal values may be shown once. Read-outs that look alike come from different tables or passages of the source.

Assays:
[1] = tested on: alpha-2-andrenergic receptors; settings: compared with clonidine
[2] = tested on: patients with glaucoma or ocular hypertension; settings: for difference in effectiveness of brimonidine and dorzolamide: jointly used with topical beta-blockers, Cantor
[3] = tested on: carbonic anhydrase isoenzyme; settings: after 4 weeks of bilateral treatment
[4] = tested on: primary open-angle glaucoma patients; settings: 30 patients
[5] = topical

Brc1c(NC2=NCCN2)ccc2nccnc12 [brimonidine]
selectivity to alpha-2 adrenergic receptors [1]: higher selectivity
effectiveness in reducing ocular hypertension, brimonidine at 0.2% versus dorzolamide at 2% ([2]; joint therapy with topical beta-blockers, adults with ocular hypertension, Simmons): more effective
additive effect of intraocular pressure reduction ([2]; joint treatment to topical beta-blocker therapy): 5 mmhg and 3.7 mmhg
difference in effectiveness of brimonidine and dorzolamide [2]: no statistically significant differences

CCN[C@H]1C[C@H](C)S(=O)(=O)c2sc(S(N)(=O)=O)cc21 [dorzolamide]
decrease of carbonic anhydrase isoenzyme's activity, of its basic activity [3]: 21%
additional reduction of intraocular pressure when added to topical brimonidine ([2]; dorzolamide at 2%, patients with intraocular pressure of at least 22 mm Hg, 30 days, Ermis): up to 29%
reduction of intraocular pressure when added to timolol ([2]; human, in vivo): 20%
difference in effectiveness of brimonidine and dorzolamide [2]: no statistically significant differences
binding to plasma proteins (plasma proteins): ~33%

CC(C)OC(=O)CCC/C=C\C[C@@H]1[C@@H](CC[C@@H](O)CCc2ccccc2)[C@H](O)C[C@@H]1O [latanoprost]
increase in pulsating ocular blood flow [4]: 2.15 µL/s
reduction of intraocular pressure [4]: 3.75 mmHg

CC(C)(C)NC[C@H](O)COc1nsnc1N1CCOCC1 [timolol]
time over which ocular antihypertensive effect is maintained (chronic use): up to three years
duration of effect (one drop of timolol at 0.5%): over 24 hours
start of the drug's action (one drop of timolol at 0.5%): after an hour
time of peak effect (one drop of timolol at 0.5%): 2 h
start of the drug's action (one drop, topical ocular instillation): within a single hour
duration of significant reduction of intraocular pressure (single dose): up to 24 hours
effect over pupil size or accommodation [5]: little or no effect
systemic effects after absorption [5]: decrease in heart rate, cardiac arrhythmia and bronchial spasm

Brimonidine tartrate
time of peak ocular antihypertensive effects (topical administration of ophthalmic solution): 2 to 3 h
